According to the NIST ThermoML archive (doi:10.1021/acs.jced.7b00242):

Tests used:
[1] = refractive index (Na D-line) (dimensionless)

CCCCCCCCCCCCn1cc[n+](C)c1.O=S(=O)([N-]S(=O)(=O)C(F)(F)F)C(F)(F)F
101 kPa, Liquid
Conditions | mass density, Vibrating tube method [kg/m3] | viscosity, Concentric cylinders viscometry [mPa·s]
293.15 K | 1253.1 | –
298.15 K | 1248 | 130.5
303.15 K | 1242 | 101.1
313.15 K | 1232.2 | 63.54
323.15 K | 1224.1 | 42.41
333.15 K | 1216 | 29.67
343.15 K | 1208.1 | 21.63
353.15 K | 1200 | 16.31
363.15 K | 1191.8 | 12.65

Liquid, Ring tensiometer
Conditions | surface tension liquid-gas [mN/m]
298.15 K | 28.1
303.15 K | 27.7
313.15 K | 26.9
323.15 K | 25.9
333.15 K | 24.9
343.15 K | 24.1
353.15 K | 23.3
363.15 K | 22.5

Conditions | Normal melting temperature [°C]
Crystal, DTA | 22.50

[1], 101 kPa, Liquid, Standard Abbe refractometry
Conditions | refractive index
293.15 K | 1.4385
298.15 K | 1.437
303.15 K | 1.4354
313.15 K | 1.4324
323.15 K | 1.4295
333.15 K | 1.4265
343.15 K | 1.4237
353.15 K | 1.4209
363.15 K | 1.4179

CCCCCCCCCCCCCCn1cc[n+](C)c1.O=S(=O)([N-]S(=O)(=O)C(F)(F)F)C(F)(F)F
101 kPa, Liquid
Conditions | mass density, Vibrating tube method [kg/m3] | viscosity, Concentric cylinders viscometry [mPa·s]
303.15 K | 1197.1 | –
313.15 K | 1187.6 | 83.54
323.15 K | 1180 | 54.36
333.15 K | 1171.3 | 37.21
343.15 K | 1163.1 | 26.58
353.15 K | 1154.6 | 19.68
363.15 K | 1146.5 | 15.04

surface tension liquid-gas [mN/m]
Conditions | 303.15 K | 313.15 K | 323.15 K | 333.15 K | 343.15 K | 353.15 K | 363.15 K
Metastable liquid, Ring tensiometer | 26.3 | – | – | – | – | – | –
Ring tensiometer, Liquid | – | 25.3 | 24.5 | 23.7 | 22.9 | 22.3 | 21.7

Conditions | Normal melting temperature [°C]
Crystal, DTA | 34.4

refractive index, [1], 101 kPa
Conditions | 303.15 K | 313.15 K | 323.15 K | 333.15 K | 343.15 K | 353.15 K | 363.15 K
Metastable liquid, Standard Abbe refractometry | 1.4384 | – | – | – | – | – | –
Standard Abbe refractometry, Liquid | – | 1.4352 | 1.4322 | 1.4292 | 1.4262 | 1.4233 | 1.4204

CCCCCCCCCCn1cc[n+](C)c1.O=S(=O)([N-]S(=O)(=O)C(F)(F)F)C(F)(F)F
101 kPa, Liquid
Conditions | mass density, Vibrating tube method [kg/m3] | viscosity, Concentric cylinders viscometry [mPa·s]
273.15 K | 1292.7 | –
289.15 K | 1287.3 | –
293.15 K | 1282.3 | 139.9
298.15 K | 1278.4 | 101.2
303.15 K | 1274.2 | 79.17
313.15 K | 1265.3 | 50.86
323.15 K | 1256.3 | 34.51
333.15 K | 1247.5 | 24.5
343.15 K | 1239.4 | 18.08
353.15 K | 1230.6 | 13.78
363.15 K | 1222.3 | 10.79

Liquid, Ring tensiometer
Conditions | surface tension liquid-gas [mN/m]
298.15 K | 29.8
303.15 K | 29.2
313.15 K | 28.3
323.15 K | 27.5
333.15 K | 26.9
343.15 K | 26.3
353.15 K | 25.7
363.15 K | 25.2

Conditions | Normal melting temperature [°C]
Crystal, DTA | 3.04

[1], 101 kPa, Liquid, Standard Abbe refractometry
Conditions | refractive index
293.15 K | 1.4366
298.15 K | 1.4351
303.15 K | 1.4336
313.15 K | 1.4306
323.15 K | 1.4278
333.15 K | 1.425
343.15 K | 1.4222
353.15 K | 1.4194
363.15 K | 1.4166

CCCCCCCCCCn1cc[n+](C)c1.[Cl-] [1-decyl-3-methylimidazolium chloride]
Liquid
Conditions | mass density [kg/m3] | viscosity [mPa·s]
298.15 K, 101 kPa, Vibrating tube method | 984 | –
303.15 K, 101 kPa, Vibrating tube method | 979.7 | –
313.15 K, 100 kPa, Concentric cylinders viscometry | – | 3716
313.15 K, 101 kPa, Vibrating tube method | 974.4 | –
323.15 K, 100 kPa, Concentric cylinders viscometry | – | 1613
323.15 K, 101 kPa, Vibrating tube method | 968.1 | –
333.15 K, 100 kPa, Concentric cylinders viscometry | – | 778.9
333.15 K, 101 kPa, Vibrating tube method | 962.4 | –
343.15 K, 100 kPa, Concentric cylinders viscometry | – | 411.2
343.15 K, 101 kPa, Vibrating tube method | 956.4 | –
353.15 K, 100 kPa, Concentric cylinders viscometry | – | 233.7
353.15 K, 101 kPa, Vibrating tube method | 950.7 | –
363.15 K, 100 kPa, Concentric cylinders viscometry | – | 141.7
363.15 K, 101 kPa, Vibrating tube method | 943.8 | –

Liquid, Ring tensiometer
Conditions | surface tension liquid-gas [mN/m]
303.15 K | 34
313.15 K | 30.2
323.15 K | 28.4
333.15 K | 27.8
343.15 K | 27
353.15 K | 26.2
363.15 K | 25.5

Conditions | Normal melting temperature [°C]
Crystal, DTA | 28.96

[1], 100 kPa, Liquid, Standard Abbe refractometry
Conditions | refractive index
293.15 K | 1.5002
298.15 K | 1.4988
303.15 K | 1.4972
313.15 K | 1.4937
323.15 K | 1.4897
333.15 K | 1.4864
343.15 K | 1.4834
353.15 K | 1.4806
363.15 K | 1.4788

CCCCCCCCCCCC[n+]1ccn(C)c1.[Cl-] [1-dodecyl-3-methylimidazolium chloride]
Conditions | Normal melting temperature [°C]
Crystal, DTA | 96.22
